Experimental data from patent US7314633B2, “Carboxylate-gated-nitroxide (CGN) compounds and compositions and methods of use thereof” (SynZyme Technologies LLC, priority 2001, dated 2008).

How the values were obtained:
[1] = test system: cultured rat cortical neurons; assay: SIN-1 (peroxynitrite generator) toxicity in cultured rat cortical neurons (MTT); type: cell-based; conditions: SIN-1 1 mM, compound added 15 minutes prior
Experimental: Primary neuronal cultures were made from forebrains of fetal rat pups (embryonic day 15). The cells were dispersed by repeated mechanical trituration in neuronal culture medium (MEM Eagle (Sigma, M4526), supplemented with glutamine (2 mM), penicilin-streptomycine (50 Units/ml-0.05 mg/ml), heat-inactivated horse serum (10%), fetal bovine serum (10%), glucose (0.5% or 28 mM). Following centrifugation (900 g; 5 min), the cells were placed onto poly-L-lysine-coated 96 well plates at a density of […]. Cytotoxicity was induced in the cells according to a published procedure (Carroll et al 2000). SIN-1 (3-morpholinosydnonimine, Sigma), a PN generator, was dissolved in 50 mM phosphate (pH 5.0) just prior to use, and added to each well to give the final concentration of 1 mM. […] Neuronal viability was quantitatively determined using the colorimetric MTT assay. MTT was added to each well such that the final concentration of the dye was 0.15 mg/ml. Plates were then returned to the incubator for 1 hour at which time unincorporated MTT was removed, and the plates allowed to air dry. The purple formazan product present in viable cells was then dissolved by adding acidified isopropanol (with 0.1 N HCl in) and the absorbance intensity (540 nm) was measured using a 96 well plate reader. % Control=(Test A540/Mean Control)×100%.

[2] = Metabolism and excretion after topical application (EPR of urine and plasma); type: in vivo, mouse; conditions: after 6 hours; 10 day daily topical application
[3] = Water/octanol partition measured by EPR; type: physicochemical; conditions: 15 minutes, TOPS = presumed product after NaOH hydrolysis of DE-TOPS
Experimental: (§1) After 15 minutes, a 40 μl sample of water or oil was taken for EPR spectral analysis. […] The solution was neutralized with hydrochloric acid and added to 1 ml of water and 2 ml of octanol. The mixture was allowed to partition, and after 15 minutes, a 40 μl sample of water or oil was taken for EPR spectral analysis. EPR spectral were taken using a Varian E9 spectrophotometer. Sweep width was 100 G, frequency was 9.535 GHz, microwave power was […] and the modulation frequency was 100 Hz.

[4] = Chemical hydrolysis of esters by NaOH or KOH, followed by EPR; type: physicochemical; conditions: sodium hydroxide (NaOH), aqueous, EPR pre- and post-hydrolysis
Experimental: as §1
20 mg of ^14N-^15N-TE-TOPS was mixed in 1 ml of 10 mM KOH and allowed to incubate overnight at room temperature. The solution was neutralized with hydrochloric acid. EPR spectral were taken using a Varian E9 spectrophotometer. Sweep width was 100 G, frequency was 9.535 GHz, microwave power was […] and the modulation frequency was 100 Hz.

[5] = S-band EPR imaging of penetration and compartmentalization in human skin; type: in vivo; conditions: human volunteer forearm, 3 μL 100 mM in DMSO, topical, by eight hours
Experimental: Preliminary S-band EPR spectroscopy and imaging experiments using DETOPS were performed on the skin of a human volunteer. […] Five minutes later, when the deposited solution dried, a specially designed positioning holder with a 7 mm diameter well and bottom disk that locked into a well in the resonator cap was attached to the skin to fix this region of skin to the surface resonator See, “In vivo EPR Imaging of a Distribution and Metabolism of Nitroxide Radicals in Human Skin,” He et al., J. of Magnetic Resonance 148, 155-164 (2001). EPR and EPRI measurements were then started. Measurements on the volunteer were performed for 15 to 20 minutes periods after which there were 30-minute rest periods in which the volunteer removed the arm from the resonator and the magnet. This holder fixed the skin positioning and assured a constant filling factor of the loaded resonator. The positioning holder was left attached to the arm for the entire series of measurements lasting up to 8 hours.
Referring to FIG. 23, a color-coded image of CNO penetration and compartmentalization in human skin is shown. […] The measurements were performed using S-band (2.2 GHz) EPR imaging system with a specially designed surface resonator as described in He et al., J. of Magnetic Resonance 148, 155-164 (2001). The dotted line marks the surface of the skin. […]

Rhino mouse = assay: Anti-wrinkle effect in Rhino mouse exposed to UVB; type: in vivo; conditions: compared with Retin-A
Experimental: To determine the advantage of CGN compared to commercially available topical therapies, BE-TOPS, Retin-A, and a placebo were administered to the skin of mice exposed to alternate days of UVB radiation.

[6] = Inhibition of peroxynitrite-dependent nitration of HPA; type: biochemical; conditions: 1 mM HPA, 1 mM peroxynitrite, pH 6.5
Experimental: Peroxynitrite was made by a procedure described previously. Solution of 1 mM 4-hydroxyphenylacetic acid (HPA, Sigma) were made in 100 mM sodium phosphate at pH 6.5. […] Peroxynitrite was added at a final concentration of 1 mM to start the nitration. […] The nitration was followed spectrophotometrically at 405 nm. The concentration of 4-hydroxy-3-nitrophenylacetate was determined spectrophotometrically (430=4400 M^−1 cm^−1) after the pH of reaction mixtures were increased to 10-11 with NaOH.

hairless mice = test system: hairless mice
Experimental: Topical application was daily 10 minutes prior to UVB radiation. UVB dose was 200 mJ/cm2 during 15 minutes. UVB lamp has spectrum distribution of 290-310 nm at 80% below 310 nm at 20%.
Same protocol as in example 13 was used for this study.

[7] = test system: cultured rat cortical neurons; assay: Hemoglobin toxicity in cultured rat cortical neurons (MTT); type: cell-based; conditions: hemoglobin 10 uM, 24 hours
Experimental: E-TOPS is neuroprotective in a model of hemorrhagic transformation in stroke. Primary neuronal cultures were made from forebrains of fetal rat pups (embryonic day 15). The cells were dispersed by repeated mechanical trituration in neuronal culture medium (MEM Eagle (Sigma, M4526), supplemented with glutamine (2 mM), penicilin-streptomycine (50 Units/ml-0.05mg/ml), heat-inactivated horse serum (10%), fetal bovine serum (10%), glucose (0.5% or 28 mM). Following centrifugation (900 g; 5 min), the cells were placed onto poly-L-lysine-coated 96 well plates at a density of […]. Hemoglobin in saline was added at 10 uM final concentration and ETOPS were added at 10 uM, 1 uM, and 0.1 uM final concentration. 24 hours after incubation neuronal viability was quantitatively determined using the colorimetric MTT assay. MTT was added to each well such that the final concentration of the dye was 0.15 mg/ml. Plates were then returned to the incubator for 1 hour at which time unincorporated MTT was removed, and the plates allowed to air dry. The purple formazan product present in viable cells was then dissolved by adding acidified isopropanol (with 0.1 N HCl in) and the absorbance intensity (540 nm) was measured using a 96 well plate reader. % Control=(Test A540/Mean Control)×100%.

mice = assay: Acute toxicity LD50 / survival rate in mice; type: in vivo; conditions: mice, dosage of 2.0 mmol/kg
From the text: (§2) As noted above, the practical, clinical application of unbound, small molecule nitroxides has been limited by the reduced activity in vivo and comparatively short in vivo half-life. The result of the reduced in vivo half-life is the need to administer a larger dose to achieve the same therapeutic or diagnostic effect.

[8] = Acute toxicity LD50 / survival rate in mice; type: in vivo; conditions: mouse, in vivo
From the text: as §2

[9] = gold standard, previously shown; cited from earlier work
[10] = In vivo plasma half-life by EPR, co-administration of 14N E-TOPS and 15N Tempol
Experimental: Plasma half-life is measured by collecting the spectrum each minute for 60 to 90 minutes.

human Y-79 cells = assay: TNF-α induced apoptosis of Y-79 cells (annexin V flow cytometry); type: cell-based; conditions: Y-79 cell line, E-TOPS 100 μg/ml, TNF-α 5.0 ng/ml, 6, 24 and 48 hours
Experimental: The UV light induced apoptosis may be measured by a model in which apoptosis is induced by exposure to tumor necrosis factor alpha (TNF-α). […] Cultured human Y-79 cells were maintained at pH 7.4 in culture flasks in a mixture of amphotericin/penicillin/streptomycin treated (1% v/v) RPMI 1640 media with L-glutamine and 10% fetal bovine serum in an incubator under 10%-CO2/90%-air brood conditions at 37 degrees Celsius and 20% humidity. […] From this stock solution, 10 μl was added to 1 ml of the cell suspension solution so that the final concentration of ETOPS was 100 μg/ml of ETOPS. Human TNF-μ(10 μg/1 ml) was used to prepare serial media dilutions to obtain TNF-α concentrations of 5.0 ng/ml. Cell densities and viability were determined by trypan blue exclusion assay on a Zeiss inverted microscope to ensure cell concentrations prior to cytometric assaying. […]
Flow cytometric methods were employed to take advantage of annexin V's reversible and calcium-dependent binding to negatively charged phosphatidylserine (PS) residues in a 1:50 annexin to PS ratio. […] Total samplings averaged 5000 cell events counted out of sample populations averaging well over 1.0×10^6 cells/ml with statistics and regression analysis given for each set of sample quadrants using CellQuest softvare. […]

CCOC(=O)CC(C(=O)OCC)=C1CC(C)(C)N([O])C(C)(C)C1 [DE-TOPS, Di-ethyl-2,2,6,6-tetramethyl-1-oxy-4-piperidylidene-succinate]
inhibition of peroxynitrite-induced (SIN-1) toxicity on cortical neurons [1]: dose dependent inhibition
EPR signal in urine compared with plasma [2]: stronger EPR signal
partition coefficient (LogP) [3]: 1.7
hydrolysis of DE-TOPS to TOPS [4]: near complete conversion
distribution in skin layers compared to tempone (1-D EPR spatial image) [5]: enhanced visual distribution throughout the dermis and epidermis
UVB sensitivity of treated skin (Rhino mouse): not UVB sensitive
inhibition of nitration of HPA by peroxynitrite [6]: inhibited
skin thickening induced by UVB (histopathology) (hairless mice; 100 mM in petroleum base, topical daily 10 minutes prior to UVB, 11 days, 200 mJ/cm2): dramatically reduces skin thickening
UVB light induced skin thickening, hemorrhage, inflammation (hairless mice; applying pre and post radiation in mice): reduces UVB light induced skin thickening, hemorrhage, inflammation
UVB induced skin lesion, chronic (hairless mice; same mice kept for 4 month, applied 2 hour before UVB radiation): inhibited
inhibition of hemoglobin-induced toxicity of cortical neurons [7]: dose dependent inhibition

CC1(C)CC(=C(CC(=O)O)C(=O)O)CC(C)(C)N1[O] [TOPS, 2,2,6,6-tetramethyl-1-oxyl-piperidinene-4-succinate]
inhibition of peroxynitrite-induced (SIN-1) toxicity on cortical neurons [1]: dose dependent inhibition
partition coefficient (LogP) [3]: −0.9
inhibition of nitration of HPA by peroxynitrite [6]: inhibited
inhibition of hemoglobin-induced toxicity of cortical neurons [7]: dose dependent inhibition

CC1(C)CC(O)CC(C)(C)N1[O] [Tempol, 4-hydroxy-2,2,6,6-tetramethylpiperidine-1-oxyl]
survival rate (mice): zero survival rate
LD50 [8]: 375 mg/kg
prevention of nitration of HPA by peroxynitrite in vitro [9]: prevent the nitration
half-life ([10]; mouse, in vivo, ip, 80 mg/kg): > 40 min

monoethyl-2,2,6,6-tetramethyl-1-oxy-4-piperidylidene-succinate [E-TOPS]
apoptosis induced by TNF-α (human Y-79 cells): reduces apoptosis
inhibition of peroxynitrite-induced (SIN-1) toxicity on cortical neurons [1]: dose dependent inhibition
inhibition of nitration of HPA by peroxynitrite [6]: inhibited
in vivo half-life compared to Tempol ([10]; intravenous, intramuscular, oral and intraperitoneal administration at 200 mg/kg): increased in vivo half-life compared to Tempol
in vivo plasma half-life compared to Tempol ([10]; mice, administered orally, 125 mg/kg E-TOPS and 80 mg/kg Tempol): extended
in vivo plasma half-life compared to Tempol ([10]; mice, co-administrated intravenously): extended
time with substantially higher activity than Tempol in plasma ([10]; mice, i.p., 125 mg/kg E-TOPS co-administered with Tempol): at least 80 minutes
in vivo plasma half-life compared to Tempol ([10]; mice, intramuscular co-administration): dramatically extended over Tempol for at least 60 minutes
inhibition of hemoglobin-induced toxicity of cortical neurons [7]: dose dependent inhibition
neuronal viability ([7]; ETOPS at 10 uM, 1 uM, 0.1 uM): increased neuronal viability
